Legend:
Format in all cases: cell-based
[1] = tested on: Bacillus stearothermophilus; assay: Premi Test microbial inhibition test, spiked bovine kidney pre-urine; conditions: part of sample with methylcellulose 1.5%, controls yellow after 185 minutes
From the text: Fresh kidneys of 7 negative (negative in the sense of the presence of antibiotics) cows were obtained from a slaughterhouse. To obtain samples for testing for the presence or absence of antimicrobial drug residues, the rosettes of the kidneys were divided into pieces. The pieces were gently squeezed using a garlic press to obtain pre-urine.
(§1) The samples were then examined using microbial inhibition test ampoules produced according to the methods described in EP 0005891 with the nutrients present in the agar. The said test is also known as Premi®Test (commercially available from DSM N.V., Delft, The Netherlands).
100 μl of each of the 7 squeezed samples (pre-urine) was added to the test ampoules and heated for 10 minutes at 80° C. in a waterbath, the ampoules were immediately placed in a waterbath of 64° C. and incubated following the instructions of the manufacturer.
The experiment was executed as described in Example 1. However now to a part of the pre-urine sample the thickening agent methylcellulose (4000 c.p.i., Sigma) was added to a final concentration of 1.5%. Also spiked samples were prepared following the method described in Example 6.

[2] = tested on: Bacillus stearothermophilus; assay: Premi Test microbial inhibition test, spiked chicken meat juice with thickening agent
Procedure: as §1
Fresh chicken breast meat of a negative chicken was obtained from a slaughterhouse (negative in the sense of the presence of antibiotics). To obtain meat fluid for further testing pieces of meat were heated for 10 minutes at 64° C. and gently sqeezed using a garlic press. Spiked samples were prepared by adding Amoxicillin (0, 5 and 10 ppb), Oxytetracycline (0, 75 and 100 ppb) or Sulphadiazine (0, 75 and 100 ppb) to the meat juice.
To a part of said samples the thickening agent methylcellulose (4000 c.p.i., Sigma) was added to a final concentration of 1.5%.
100 μl of each sample was added to the Premi®Test ampoules (in duplicate) following the procedure described in Example 1. However, since a thickening agent was added, the pre-incubation step was not required anymore. Also the heating of the samples for 10 minutes at 80° C. was not required for this specific sample.
In addition a similar experiment was executed. However, now samples containing 10 ppb of Amoxycillin or 200 ppb of Oxytetracycline were prepared and the thickening agent bovine albumine (Sigma) was added to a final concentration of 6%.

[3] = tested on: Bacillus stearothermophilus; assay: Delvotest microbial inhibition test, spiked egg samples; conditions: heated 10 minutes at 80° C., incubated at 64° C., read after 140 minutes
Procedure: A hole of approximately 1-2 cm2 was made in the egg, the egg yolk was pricked and the egg was placed with the hole down on a bottle allowing the egg white and egg yolk to drip into the bottle. After the egg had emptied, the bottle was closed and the sample was homogenized by shaking. To inactivate the natural inhibiting compounds present in the egg sample, 100 μl of each of the 5 samples was added on Delvotest® ampoules. The test was produced according to the methods described in EP 0005891 with the nutrients present in the agar. After heating for 10 minutes at 80° C. in a waterbath, the ampoules were immediately placed in a waterbath at 64° C. and incubated following the instructions of the producer. […] Egg samples were obtained according to the method described in Example 3. The samples were spiked by adding Penicillin G (0 and 4 ppb) or Sulphadiazine (0 and 100 ppb). The egg samples were added to Delvotest® ampoules (see Example 3) according to the method described in this invention: heated for 10 minutes at 80° C., and then, immediately placed in a waterbath at 64° C. and incubated following the instructions of the manufacturer.

[4] = tested on: Bacillus stearothermophilus; assay: Microbial inhibition test ampoules (EP 0005891), spiked raw milk; conditions: with or without bovine albumine 6% or heating 10 minutes at 80° C., controls yellow after 160-185 minutes
Procedure: Raw milk samples of negative cows were obtained from a farmer (negative in the sense of the presence of antibiotics). Spiked samples were prepared by adding Penicillin G to the milk (0, 4 and 6 ppb). To a part of said samples the thickening agent bovine albumine (Sigma) was added to a final concentration of 6%. The samples were then examined using microbial inhibition test ampoules produced according to the method described in EP 0005891 with the nutrients in the agar. 100 μl of milk was added to the test ampoules. A part of the test ampoules with the raw milk sample was heated for 10 minutes at 80° C. as described in Example 1. All experiments were executed in five fold. The tests were further incubated following the methods described in Example 1.

## Nc1ccc(S(=O)(=O)Nc2ncccn2)cc1 [Sulphadiazine]
[1]; pre-urine spiked with 75 ppb
  test colour / result (purple = positive): remained purple (positive)
[1]; pre-urine spiked with 100 ppb
  test colour / result (purple = positive): remained purple (positive)
[2]; chicken meat juice spiked with 75 ppb, part of samples with methylcellulose 1.5%, after 160 minutes
  test colour / result (purple = positive): remained purple (positive)
[2]; chicken meat juice spiked with 100 ppb, part of samples with methylcellulose 1.5%, after 160 minutes
  test colour / result (purple = positive): remained purple (positive)
[3]; egg sample spiked with 100 ppb
  test colour / result (purple = positive, growth of test organism inhibited): remained purple (positive)

## CC1(C)S[C@@H]2[C@H](NC(=O)[C@H](N)c3ccc(O)cc3)C(=O)N2[C@H]1C(=O)O [Amoxicillin]
[1]; pre-urine spiked with 5 ppb
  test colour / result (purple = positive): remained purple (positive)
[1]; pre-urine spiked with 10 ppb
  test colour / result (purple = positive): remained purple (positive)
[2]; chicken meat juice spiked with 5 ppb, part of samples with methylcellulose 1.5%, after 160 minutes
  test colour / result (purple = positive): remained purple (positive)
[2]; chicken meat juice spiked with 10 ppb, bovine albumine 6%, after 165 minutes
  test colour / result (purple = positive): remained purple
[2]; chicken meat juice spiked with 10 ppb, part of samples with methylcellulose 1.5%, after 160 minutes
  test colour / result (purple = positive): remained purple (positive)

## CC1(C)S[C@@H]2[C@H](NC(=O)Cc3ccccc3)C(=O)N2[C@H]1C(=O)O [Penicillin G]
[3]; egg sample spiked with 4 ppb
  test colour / result (purple = positive, growth of test organism inhibited): remained purple (positive)
[4]; raw milk spiked with 4 ppb
  test colour / result (purple = positive): remained purple (positive)
[4]; raw milk spiked with 6 ppb
  test colour / result (purple = positive): remained purple (positive)
